The subject of one data set is MRSA USA300 biofilms. The data set can be described thus: Biofilm inhibition by >95% pure peptides (crystal violet), MRSA. The data set is classed as cell-based, methicillin resistant Staphylococcus aureus. The settings on record: for minimum inhibitory concentration of peptide that inhibited at least 90% of biofilm growth (MBIC90): MRSA USA300 biofilms, >95% pure peptides, 10% TSB + 0.1% glucose; for IC50: MRSA, 24 hours.

The test system of the next data set is P. aeruginosa PAO1. The data set can be described thus: MIC (broth microdilution) of peptides, P. aeruginosa. The data set is classed as cell-based, Pseudomonas aeruginosa. The settings on record: mode of three biological replicates. The procedure:
(§1) Minimal inhibitory concentration (MIC) against planktonic bacteria: The MIC of the synthetic peptides was determined in Mueller-Hinton broth (MHB) using the broth microdilution method described previously [Wiegand, I., Hilpert, K., & Hancock, R. E. (2008). Agar and broth dilution methods to determine the minimal inhibitory concentration (MIC) of antimicrobial substances. Nature Protocols, 3(2), 163-175]. Briefly, 10 μl of a 10× concentrated peptide solution was placed in the bottom of a well in a 96-well polypropylene round bottom plate (Corning Inc.). A bacterial suspension of ~5×10^5 CFU/ml was prepared from an overnight culture and 90 μl of this was added to each well. […] Bacteria tested included P. aeruginosa PAO1, MRSA USA300 LAC, Staphylococcus haemolyticus, Staphylococcus epidermidis, Klebsiella pneumoniae and Streptococcus salivarius.
(§2) Finally, the AB103-D derivatives that were the least aggregation prone and which produced the lowest toxic effects in vivo were evaluated for their direct antibacterial activity towards several pathogens of clinical relevance using a standard minimum inhibitory concentration (MIC) assay [Wiegand, I., Hilpert, K., & Hancock, R. E. (2008). Agar and broth dilution methods to determine the minimal inhibitory concentration (MIC) of antimicrobial substances. Nature Protocols, 3(2), 163-175]. Specifically, peptides AB110-D, AB111-D, AB114-D and AB115-D were tested against P. aeruginosa PAO1, MRSA USA 300, Staphylococcus haemolyticus, Staphylococcus epidermidis, Klebsiella pneumoniae and Streptococcus salivarius and compared against the antibacterial activity of DJK-5 and AB103-D (Table 7). Overall, the antibacterial potency of all of the AB103-D derivatives was stronger than that seen for DJK-5, particularly in the case of the Gram-negative pathogens P. aeruginosa and K. pneumoniae. […]
For orientation: Dilution methods test growth across graded concentrations, often in twofold steps.

For data set [1], the system named is Staphylococcus haemolyticus. The data set is described as follows: MIC (broth microdilution) of peptides, S. haemolyticus. The data set is classed as cell-based. The settings on record: mode of three biological replicates. The method, then: as §1, §2
Data set [2] relates to Staphylococcus epidermidis. The data set is described as follows: MIC (broth microdilution) of peptides, S. epidermidis. The data set is classed as cell-based. The settings on record: mode of three biological replicates. The procedure: as §1, §2
Another data set concerns Klebsiella pneumoniae. The data set is described as follows: MIC (broth microdilution) of peptides, K. pneumoniae. The data set is classed as cell-based. The settings on record: mode of three biological replicates. The method, then: as §1, §2
For a further data set, the system named is Streptococcus salivarius. The data set can be described thus: MIC (broth microdilution) of peptides, S. salivarius. It is filed as cell-based. The following applies: mode of three biological replicates. The procedure:
as §1, §2

Data set [3] has as its system Enterococcus faecium #2-1. The data set can be described thus: Biofilm inhibition (at least 80%), E. faecium. The data set is classed as cell-based. The settings on record: E. faecium #2-1; n = 3; TSB + 1% glucose; 48 hours; crystal violet.
The test system of data set [4] is Klebsiella pneumonia KPLN649. The data set can be described thus: Biofilm inhibition (at least 80%), K. pneumonia. It is filed as cell-based. The settings on record: K. pneumoniae KPLN649; n = 3; BM2 minimal media; 48 hours; crystal violet.
In data set [5] the test system is Acinetobacter baumannii Ab5075. The data set can be described thus: Biofilm inhibition (at least 80%), A. baumannii. The data set is classed as cell-based. The following applies: n = 4, BM2 minimal media, 18-24 hours, crystal violet.
Data set [6] relates to P. aeruginosa LESB58. The data set can be described thus: Murine model of abscess infections. It is filed as in vivo, murine; Pseudomonas aeruginosa.
A short description of data set [7]: Peptide aggregation in RPMI + 10% FBS with PBMCs (microscopy). The data set is classed as physicochemical. The following applies: 50 μg/ml, overnight. An outline of the steps: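 Peptides added to human PBMCs in RPMI with 10% FBS, incubated overnight at 37 °C, 5% CO2; aggregation assessed qualitatively by inverted light microscopy at 10× magnification.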
In data set [8] the test system is P. aeruginosa LESB58. The data set is described as follows: Murine sinusitis model, P. aeruginosa. It is filed as in vivo, mouse; Pseudomonas aeruginosa. The text has this:
FIGS. 15A-15I show peptides AB101-D, AB102-D and AB103-D compared to DJK5 in a murine sinusitis model of bacterial infections. MRSA USA300, nasal cavity (FIG. 15A) P. aeruginosa LESB58 (FIG. 15B and FIG. 15C, nasal cavity); MRSA USA300, lung tissue (FIG. 15D) P. aeruginosa LESB58 (FIG. 15E and FIG. 15F, lung tissue); and MRSA USA300, weight change (FIG. 15G) P. aeruginosa LESB58 (FIG. 15H and FIG. 15I, weight change).
A murine sinusitis model of bacterial infections in the nasal cavity of mice [Alford et al. (2021). Murine model of sinusitis infection for screening antimicrobial and immunomodulatory therapies. Frontiers in Cellular and Infection Microbiology., 11, 621081] was used to determine the efficacy of D-amino acid peptides AB101-D, AB102-D and AB103-D compared to DJK5. […]. Treatment was applied either as dropwise administration of a peptide solution (20 μl) to the infected naris of a mouse (FIGS. 15A, 15B, 15D, 15E, 15G, 15H) or peptide was delivered using a Respimat® inhaler device (FIGS. 15C, 15F, 15I). Mice were monitored and weighed once daily for up to three days then euthanized prior to collection of nasal lavage fluid and lung tissue for bacterial enumeration. The limit of detection is shown by the dotted line at log CFU=2. […] Accordingly, the results indicated enhanced efficacy of D-amino acid peptides AB101-D, AB102-D and AB103-D compared to DJK5 in this murine model.

For a further data set, the system named is PAO1 preformed biofilms. The settings on record: for IC50: read-out: Biofilm Eradication IC50, PAO1, 24-hr preformed biofilms treated overnight, TTC.

≈ marks a conversion by molar mass, not a printed value. Where a SMILES comes first, the peptide text is derived from it. [ ]: non-standard residue; d: D form.

In general, IC50 refers to the concentration at which inhibition is half-maximal. What is called MIC is the lowest concentration that inhibits growth of the organism. Take `CC[C@@H](C)[C@@H](NC(=O)[C@@H](C)NC(=O)[C@@H](CCCNC(=N)N)NC(=O)[C@@H](Cc1c[nH]c2ccccc12)NC(=O)[C@@H](CCC(N)=O)NC(=O)[C@H](NC(=O)[C@@H](CCCNC(=N)N)NC(=O)[C@H](NC(=O)[C@H](NC(=O)[C@@H](CCCNC(=N)N)NC(=O)[C@H](NC(=O)[C@H](N)CCCNC(=N)N)C(C)C)C(C)C)[C@H](C)CC)C(C)C)C(N)=O` [AB103-D, rvrvirvqwrai-NH2] (H-[dR][dV][dR][dV][dI][dR][dV][dQ][dW][dR][dA][dI]-NH2): the “minimum inhibitory concentration of peptide that inhibited at least 90% of biofilm growth (MBIC90)” value in the data set with MRSA USA300 biofilms was determined as 1 µM. In addition, the IC50 with MRSA USA300 biofilms was found to be 0.34 µM; in the data set on PAO1 preformed biofilms, 1.7 µM. For the same compound, the minimal inhibitory concentration (MIC) with P. aeruginosa PAO1 amounted to 2 mg/L (≈ 1.29 µM); in data set [1], 0.8 mg/L (≈ 0.516 µM); in data set [2], 0.8 mg/L (≈ 0.516 µM); in the data set with Klebsiella pneumoniae, 0.8 mg/L (≈ 0.516 µM); against Streptococcus salivarius, 0.8 mg/L (≈ 0.516 µM). The results for the “Peptide/Antibiotic Concentration where at least 80% of biofilm growth was inhibited” value in data set [3], in data set [4] and in data set [5] were 1 µg/mL, 2 µg/mL and 1 µg/mL, respectively. The Abscess size entry in the data set on P. aeruginosa LESB58 [6] is on record as “reduced abscess size”. The “Decrease in abscess formation” value in the data set with P. aeruginosa LESB58 [6] is 77%. The Peptide aggregation entry in data set [7] was “some small aggregates”. For the same compound, the “Bacteria in nasal cavity and lungs” value in the data set with P. aeruginosa LESB58 [8] (P. aeruginosa LESB58, 0.1 mg dose, compared to DJK5) was “reduced the amount of bacteria in the nasal cavity and lungs of mice much more than DJK5 treatment”. Moreover, in the data set with PAO1 preformed biofilms (P. aeruginosa, compared with DJK5), the “Enhanced antibiofilm eradication activity” value is greater than 2 fold.

Regarding `CC[C@@H](C)[C@@H](NC(=O)[C@@H](C)NC(=O)[C@@H](CCCNC(=N)N)NC(=O)[C@@H](Cc1c[nH]c2ccccc12)NC(=O)[C@@H](CCC(N)=O)NC(=O)[C@H](N)C(C)C)C(=O)N[C@H](CCCNC(=N)N)C(=O)N[C@@H](C(=O)N[C@H](CCCNC(=N)N)C(=O)N[C@@H](C(=O)N[C@@H](C(=O)N[C@H](CCCNC(=N)N)C(N)=O)[C@H](C)CC)C(C)C)C(C)C` [DJK5, vqwrairvrvir-NH2] (H-[dV][dQ][dW][dR][dA][dI][dR][dV][dR][dV][dI][dR]-NH2), the “minimum inhibitory concentration of peptide that inhibited at least 90% of biofilm growth (MBIC90)” value in the data set on MRSA USA300 biofilms was determined as 0.5 µM. Further, the half-maximal inhibitory concentration (IC50) in the data set on MRSA USA300 biofilms was determined as 0.35 µM; in the data set on PAO1 preformed biofilms, 3.8 µM. Besides, the MIC was 6 mg/L (≈ 3.87 µM) against P. aeruginosa PAO1; 0.8 mg/L (≈ 0.516 µM) in data set [1]; 0.8 mg/L (≈ 0.516 µM) in [2]; 3 mg/L (≈ 1.93 µM) in the data set on Klebsiella pneumoniae; 0.8 mg/L (≈ 0.516 µM) with Streptococcus salivarius. Besides, the “Peptide/Antibiotic Concentration where at least 80% of biofilm growth was inhibited” value was 1 µg/mL in data set [3], 8 µg/mL in data set [4] and 2 µg/mL in data set [5]. Also, the “Decrease in abscess formation” value with P. aeruginosa LESB58 [6] is recorded as 54%. Besides, the Peptide aggregation entry in data set [7] is given as “No appreciable aggregation”. For the same compound, the Weight loss entry in the data set on P. aeruginosa LESB58 [8] (P. aeruginosa LESB58 infected mice) is reported as “did not prevent weight loss”.

(Values after patent US20260374818A1, “CATIONIC PEPTIDES WITH BROAD SPECTRUM ACTIVITY” (priority 2023, published 2026).)
